Test results published in PubChem BioAssay (NCI).
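All cell lines were grown in 96-well plates and treated with compound for 48 hours. GI50 = concentration required for 50% inhibition of growth. TGI: concentration producing complete growth inhibition.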

Key:
Experiment in all cases: NCI tumour cell line growth inhibition, 48 h; in the data active means GI50 below about 0.43 µM; inactive means the rest
[1] = tested on: 786-0 renal
[2] = tested on: A498 renal
[3] = tested on: A549 NSCLC
[4] = tested on: ACHN renal
[5] = tested on: BT-549 breast
[6] = tested on: CAKI-1 renal
[7] = tested on: CCRF-CEM leukemia
[8] = tested on: COLO 205 colon
[9] = tested on: DU-145 prostate
[10] = tested on: EKVX NSCLC
[11] = tested on: HCC-2998 colon
[12] = tested on: HCT-116 colon
[13] = tested on: HCT-15 colon
[14] = tested on: HL-60(TB) leukemia
[15] = tested on: HOP-62 NSCLC
[16] = tested on: HOP-92 NSCLC
[17] = tested on: HS 578T breast
[18] = tested on: HT29 colon
[19] = tested on: IGROV1 ovarian
[20] = tested on: K-562 leukemia
[21] = tested on: KM12 colon
[22] = tested on: LOX IMVI melanoma
[23] = tested on: M14 melanoma
[24] = tested on: MALME-3M melanoma
[25] = tested on: MCF7 breast
[26] = tested on: MDA-MB-231 breast
[27] = tested on: MDA-MB-435
[28] = tested on: MOLT-4 leukemia
[29] = tested on: NCI-H226 lung
[30] = tested on: NCI-H23 lung
[31] = tested on: NCI-H460 lung
[32] = tested on: NCI-H522 lung
[33] = tested on: NCI/ADR-RES ovarian
[34] = tested on: OVCAR-3 ovarian
[35] = tested on: OVCAR-4 ovarian
[36] = tested on: OVCAR-5 ovarian
[37] = tested on: OVCAR-8 ovarian
[38] = tested on: PC-3 prostate
[39] = tested on: RPMI-8226 leukemia
[40] = tested on: RXF 393 renal
[41] = tested on: SF-268 CNS
[42] = tested on: SF-295 CNS
[43] = tested on: SF-539 CNS
[44] = tested on: SK-MEL-2 melanoma
[45] = tested on: SK-MEL-28 melanoma
[46] = tested on: SK-MEL-5 melanoma
[47] = tested on: SK-OV-3 ovarian
[48] = tested on: SN12C renal
[49] = tested on: SNB-19 CNS
[50] = tested on: SNB-75 CNS
[51] = tested on: SR leukemia
[52] = tested on: SW-620 colon
[53] = tested on: T-47D breast
[54] = tested on: TK-10 renal
[55] = tested on: U251 CNS
[56] = tested on: UACC-257 melanoma
[57] = tested on: UACC-62 melanoma
[58] = tested on: UO-31 renal

COc1cccc(/C=N/Nc2ncnc3c2cnn3-c2cccc(OC)c2)c1
inactive: GI50 [1] > 25 µM | GI50 [2] > 25 µM | GI50 [3] > 25 µM | GI50 [4] > 25 µM | GI50 [5] > 25 µM | GI50 [6] > 25 µM | GI50 [7] > 25 µM | GI50 [8] > 25 µM | GI50 [9] > 25 µM | GI50 [10] > 25 µM | GI50 [11] > 25 µM | GI50 [12] > 25 µM | GI50 [13] > 25 µM | GI50 [14] > 25 µM | GI50 [15] > 25 µM | GI50 [16] > 25 µM | GI50 [17] > 10.6 µM | GI50 [18] > 25 µM | GI50 [19] > 25 µM | GI50 [20] > 25 µM | GI50 [21] > 25 µM | GI50 [22] > 25 µM | GI50 [23] > 25 µM | GI50 [24] > 25 µM | GI50 [25] > 25 µM | GI50 [26] > 25 µM | GI50 [27] > 25 µM | GI50 [28] > 25 µM | GI50 [29] > 25 µM | GI50 [30] > 25 µM | GI50 [31] > 25 µM | GI50 [32] > 25 µM | GI50 [33] > 25 µM | GI50 [34] > 25 µM | GI50 [35] > 25 µM | GI50 [36] > 25 µM | GI50 [37] > 25 µM | GI50 [38] > 25 µM | GI50 [39] > 25 µM | GI50 [40] > 25 µM | GI50 [41] > 25 µM | GI50 [42] > 25 µM | GI50 [43] > 25 µM | GI50 [44] > 25 µM | GI50 [45] > 25 µM | GI50 [46] > 25 µM | GI50 [47] > 25 µM | GI50 [48] > 25 µM | GI50 [49] > 25 µM | GI50 [50] > 25 µM | GI50 [51] > 25 µM | GI50 [52] > 25 µM | GI50 [53] > 25 µM | GI50 [54] > 25 µM | GI50 [55] > 25 µM | GI50 [56] > 25 µM | GI50 [57] > 25 µM | GI50 [58] > 25 µM
> 25 µM: TGI [1] | TGI [2] | TGI [3] | TGI [4] | TGI [5] | TGI [6] | TGI [7] | TGI [8] | TGI [9] | TGI [10] | TGI [11] | TGI [12] | TGI [13] | TGI [14] | TGI [15] | TGI [16] | TGI [17] | TGI [18] | TGI [19] | TGI [20] | TGI [21] | TGI [22] | TGI [23] | TGI [24] | TGI [25] | TGI [26] | TGI [27] | TGI [28] | TGI [29] | TGI [30] | TGI [31] | TGI [32] | TGI [33] | TGI [34] | TGI [35] | TGI [36] | TGI [37] | TGI [38] | TGI [39] | TGI [40] | TGI [41] | TGI [42] | TGI [43] | TGI [44] | TGI [45] | TGI [46] | TGI [47] | TGI [48] | TGI [49] | TGI [50] | TGI [51] | TGI [52] | TGI [53] | TGI [54] | TGI [55] | TGI [56] | TGI [57] | TGI [58]
